pIC50, pKi: −log10 of the molar value. Read-outs that look alike come from different tables or passages of the source.
Columns and labels:
[1] = system: leukotriene pathway in human whole blood (LTB4 levels); assay: Human whole blood assay (A23187-stimulated LTB4); type: cell-based; settings: read-out: LTB4 IC50 1:1
In short: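 Compounds are pre-incubated 15 min at 37° Celsius in RPMI-diluted (1:1) heparinised whole blood before a 30 min A23187 stimulus (7 μg/mL). Plasma LTB4 is read by immunoassay kit, with IC50 calculated from a 4-parameter equation.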

human FLAP = human FLAP (Homo sapiens (Human), UniProt P20292); assay: FLAP binding assay (HTRF format)
Sequence of human FLAP (P20292 whole entry): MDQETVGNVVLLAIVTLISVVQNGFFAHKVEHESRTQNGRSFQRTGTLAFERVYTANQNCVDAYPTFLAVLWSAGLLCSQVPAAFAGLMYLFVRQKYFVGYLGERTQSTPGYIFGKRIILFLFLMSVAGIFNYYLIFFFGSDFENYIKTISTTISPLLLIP
In short: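 Samples were run in duplicate on each of two plates and the plate results averaged. Read-out is the HTRF signal ratio.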

[2] = Homo sapiens, human whole blood diluted 1:1 in RPMI, A23187-stimulated LTB4
[3] = human FLAP wild type, HTRF format, average of two plates, duplicates
[4] = Homo sapiens, human whole blood diluted 1:1, A23187-stimulated
[5] = read-out: FLAP Binding wild type HTRF Ki

SMILES	pIC50 [1, 2]	pKi (human FLAP; [3])	further results
CC(CO)NS(=O)(=O)c1ccccc1-c1ccc(-c2cnc3[nH]ccc3n2)c(F)c1 (stereo in doubt) [Example 378, 3′-Fluoro-N-[(1R)-2-hydroxy-1-methylethyl]-4′-(5H-pyrrolo[2,3-b]pyrazin-2-yl)biphenyl-2-sulfonamide]	7.80	9.00	–
CC(CO)NS(=O)(=O)c1ccccc1-c1ccc(-c2cnc3[nH]ccc3n2)c(F)c1 (stereo in doubt) [Example 380, 3′-Fluoro-N-[(1S)-2-hydroxy-1-methylethyl]-4′-(5H-pyrrolo[2,3-b]pyrazin-2-yl)biphenyl-2-sulfonamide]	7.34	9.00	–
CC(CO)NS(=O)(=O)c1ccccc1-c1ccc(-c2cnc(N)c(C#N)n2)c(F)c1 (stereo in doubt) [Example 410, 4′-(5-amino-6-cyanopyrazin-2-yl)-3′-fluoro-N-[(1R)-2-hydroxy-1-methylethyl]biphenyl-2-sulfonamide]	–	–	pIC50 [1, 4]: 7.06; pKi (human FLAP; wild type FLAP, HTRF format): 8.40
CC(CO)NS(=O)(=O)c1ccccc1-c1ccc(-c2cnc(N)c(C#N)n2)c(F)c1 (stereo in doubt) [Example 412, 4′-(5-Amino-6-cyanopyrazin-2-yl)-3′-fluoro-N-[(1S)-2-hydroxy-1-methylethyl]biphenyl-2-sulfonamide]	–	–	pIC50 [1, 4]: 6.29; pKi (human FLAP; wild type FLAP, HTRF format): 7.72
CC(CO)Oc1ncccc1-c1ccc(-c2cnc(N)cn2)c(F)c1 (stereo in doubt) [Example 655, (2R)-2-({3-[4-(5-Aminopyrazin-2-yl)-3-fluorophenyl]pyridin-2-yl}oxy)propan-1-ol]	–	–	pIC50 [1, 4]: 5.74; pKi (human FLAP; wild type FLAP, HTRF format): 6.30
CC(CO)Oc1ncccc1-c1ccc(-c2cnc(N)cn2)c(F)c1 (stereo in doubt) [Example 657, (2S)-2-({3-[4-(5-Aminopyrazin-2-yl)-3-fluorophenyl]pyridin-2-yl}oxy)propan-1-ol]	–	–	pIC50 [1, 4]: 5.63; pKi (human FLAP; wild type FLAP, HTRF format): 7.13
CS(=O)(=O)c1ccccc1-c1ccc(-c2cnc(N)cn2)c(F)c1 [Example 1, 5-[3-Fluoro-2′-(methylsulfonyl)biphenyl-4-yl]pyrazin-2-amine]	6.07	6.66	–
CS(=O)(=O)Nc1ccccc1-c1ccc(-c2cnc(N)cn2)c(F)c1 [Example 2, N-[4′-(5-Aminopyrazin-2-yl)-3′-fluorobiphenyl-2-yl]methanesulfonamide]	6.45	6.54	–
CC(C)(C)NS(=O)(=O)c1ccccc1-c1ccc(-c2cnc(N)cn2)c(F)c1 [Example 4, 4′-(5-Aminopyrazin-2-yl)-N-tert-butyl-3′-fluorobiphenyl-2-sulfonamide]	7.74	9.00	–
Nc1cnc(-c2ccc(-c3ccccc3S(N)(=O)=O)cc2F)cn1 [Example 5, 4′-(5-Aminopyrazin-2-yl)-3′-fluorobiphenyl-2-sulfonamide]	6.43	7.46	–
Nc1cnc(-c2ccc(-c3ccccc3S(=O)(=O)NC3CCCCC3)cc2F)cn1 [Example 6, 4′-(5-Aminopyrazin-2-yl)-N-cyclohexyl-3′-fluorobiphenyl-2-sulfonamide]	7.48	9.00	–
CC(C)CNS(=O)(=O)c1ccccc1-c1ccc(-c2cnc(N)cn2)c(F)c1 [Example 7, 4′-(5-Aminopyrazin-2-yl)-3′-fluoro-N-(2-methylpropyl)biphenyl-2-sulfonamide]	7.85	8.70	–
Nc1cnc(-c2ccc(-c3ccccc3S(=O)(=O)NCC3CCC3)cc2F)cn1 [Example 9, 4′-(5-Aminopyrazin-2-yl)-N-(cyclobutylmethyl)-3′-fluorobiphenyl-2-sulfonamide]	7.22	8.52	–
CC1(NS(=O)(=O)c2ccccc2-c2ccc(-c3cnc(N)cn3)c(F)c2)CCC1 [Example 11, 4′-(5-Aminopyrazin-2-yl)-3′-fluoro-N-(1-methylcyclobutyl)biphenyl-2-sulfonamide]	7.82	8.70	–
CCC(C)(C)NS(=O)(=O)c1ccccc1-c1ccc(-c2cnc(N)cn2)c(F)c1 [Example 12, 4′-(5-Aminopyrazin-2-yl)-N-(1,1-dimethylpropyl)-3′-fluorobiphenyl-2-sulfonamide]	7.68	8.70	–
CC(C)(NS(=O)(=O)c1ccccc1-c1ccc(-c2cnc(N)cn2)c(F)c1)C(F)(F)F [Example 13, 4′-(5-Aminopyrazin-2-yl)-3′-fluoro-N-(2,2,2-trifluoro-1,1-dimethylethyl)biphenyl-2-sulfonamide]	7.74	–	pKi (human FLAP; [5]): 9.00
Nc1cnc(-c2ccc(-c3ccccc3S(=O)(=O)NC3CCCC3)cc2F)cn1 [Example 14, 4′-(5-Aminopyrazin-2-yl)-N-cyclopentyl-3′-fluorobiphenyl-2-sulfonamide]	7.49	8.52	–
CNS(=O)(=O)c1ccccc1-c1ccc(-c2cnc(N)cn2)c(F)c1 [Example 15, 4′-(5-Aminopyrazin-2-yl)-3′-fluoro-N-methylbiphenyl-2-sulfonamide]	7.23	8.00	–

SMILES	pIC50 [1, 2]	pKi (human FLAP; [3])	further results
CCNS(=O)(=O)c1ccccc1-c1ccc(-c2cnc(N)cn2)c(F)c1 [Example 16, 4′-(5-Aminopyrazin-2-yl)-N-ethyl-3′-fluorobiphenyl-2-sulfonamide]	7.74	8.22	–
Nc1cnc(-c2ccc(-c3ccccc3S(=O)(=O)NCCc3ccccc3)cc2F)cn1 [Example 17, 4′-(5-Aminopyrazin-2-yl)-3′-fluoro-N-(2-phenylethyl)biphenyl-2-sulfonamide]	7.60	8.70	–
Nc1cnc(-c2ccc(-c3ccccc3S(=O)(=O)N[C@H](c3ccccc3)C(F)(F)F)cc2F)cn1 [Example 18, (R)-4′-(5-Aminopyrazin-2-yl)-3′-fluoro-N-[(1R)-2,2,2-trifluoro-1-phenylethyl]biphenyl-2-sulfonamide]	7.15	8.70	–
Nc1cnc(-c2ccc(-c3ccccc3S(=O)(=O)N[C@@H](c3ccccc3)C(F)(F)F)cc2F)cn1 [Example 19, (S)-4′-(5-Aminopyrazin-2-yl)-3′-fluoro-N-[(1S)-2,2,2-trifluoro-1-phenylethyl]biphenyl-2-sulfonamide]	7.30	8.70	–
C[C@@H](NS(=O)(=O)c1ccccc1-c1ccc(-c2cnc(N)cn2)c(F)c1)C(F)(F)F [Example 20, (S)-4′-(5-Aminopyrazin-2-yl)-3′-fluoro-N-[(1S)-2,2,2-trifluoro-1-methylethyl]biphenyl-2-sulfonamide]	–	9.00	pIC50 ([1]; human whole blood diluted 1:1 in RPMI, A23187-stimulated LTB4): 8.05
Nc1cnc(-c2ccc(-c3ccccc3S(=O)(=O)N[C@@H]3CCc4ccccc43)cc2F)cn1 [Example 23, (R)-4′-(5-Aminopyrazin-2-yl)-N-[(1R)-2,3-dihydro-1H-inden-1-yl]-3′-fluorobiphenyl-2-sulfonamide]	7.89	9.00	–
Nc1cnc(-c2ccc(-c3ccccc3S(=O)(=O)Nc3ccccc3)cc2F)cn1 [Example 26, 4′-(5-Aminopyrazin-2-yl)-3′-fluoro-N-phenylbiphenyl-2-sulfonamide]	7.59	9.00	–
CCN1CCCC[C@@H](NS(=O)(=O)c2ccccc2-c2ccc(-c3cnc(N)cn3)c(F)c2)C1=O [Example 27, (S)-4′-(5-Aminopyrazin-2-yl)-N-[(3S)-1-ethyl-2-oxoazepan-3-yl]-3′-fluorobiphenyl-2-sulfonamide]	5.00	7.54	–
CN1CCCC[C@@H](NS(=O)(=O)c2ccccc2-c2ccc(-c3cnc(N)cn3)c(F)c2)C1=O [Example 29, (S)-4′-(5-Aminopyrazin-2-yl)-3′-fluoro-N-[(3S)-1-methyl-2-oxoazepan-3-yl]biphenyl-2-sulfonamide]	7.52	7.23	–
Nc1cnc(-c2ccc(-c3ccccc3S(=O)(=O)Nc3cccnc3)cc2F)cn1 [Example 31, 4′-(5-Aminopyrazin-2-yl)-3′-fluoro-N-pyridin-3-ylbiphenyl-2-sulfonamide]	7.44	8.40	–
CC(C)S(=O)(=O)Nc1ccccc1-c1ccc(-c2cnc(N)cn2)c(F)c1 [Example 34, N-(4′-(5-Aminopyrazin-2-yl)-3′-fluoro-[1,1′-biphenyl]-2-yl)propane-2-sulfonamide]	6.48	7.51	–
CCS(=O)(=O)Nc1ccccc1-c1ccc(-c2cnc(N)cn2)c(F)c1 [Example 35, N-[4′-(5-Aminopyrazin-2-yl)-3′-fluorobiphenyl-2-yl]ethanesulfonamide]	7.03	7.44	–
CCCS(=O)(=O)Nc1ccccc1-c1ccc(-c2cnc(N)cn2)c(F)c1 [Example 36, N-[4′-(5-Aminopyrazin-2-yl)-3′-fluorobiphenyl-2-yl]propane-1-sulfonamide]	6.92	–	pKi (human FLAP; [5]): 8.00
CC(C)CS(=O)(=O)Nc1ccccc1-c1ccc(-c2cnc(N)cn2)c(F)c1 [Example 37, N-[4′-(5-Aminopyrazin-2-yl)-3′-fluorobiphenyl-2-yl]-2-methylpropane-1-sulfonamide]	6.17	7.52	–
Nc1cnc(-c2ccc(-c3ccccc3NS(=O)(=O)C3CC3)cc2F)cn1 [Example 38, N-(4′-(5-aminopyrazin-2-yl)-3′-fluoro-[1,1′-biphenyl]-2-yl)cyclopropanesulfonamide]	6.75	7.48	–
CCCCCCS(=O)(=O)Nc1ccccc1-c1ccc(-c2cnc(N)cn2)c(F)c1 [Example 39, N-[4′-(5-Aminopyrazin-2-yl)-3′-fluorobiphenyl-2-yl]hexane-1-sulfonamide]	7.12	8.10	–
Nc1cnc(-c2ccc(-c3ccccc3NS(=O)(=O)C3CCC3)cc2F)cn1 [Example 40, N-(4′-(5-Aminopyrazin-2-yl)-3′-fluoro-[1,1′-biphenyl]-2-yl)cyclobutanesulfonamide]	6.95	7.85	–
